Results published in PubChem BioAssay AID248 (DTP/NCI, 2004).
Values joined by “and” are separate entries in the source; they are usually repeats but may differ in a detail not shown here. Equal entries are not always repeated. Toxic doses and inconclusive results are not listed. Cut-off read from the data, not from the text of the source: active = T/C of 150% or more; inactive = T/C below 125%.

Tested on: L1210 leukemia ip in BDF1 mice, survival T/C
Experiment: NCI In Vivo Anticancer Drug Screen. Data for tumor model L1210 Leukemia (intraperitoneal) in B6D2F1 (BDF1) mice
Conditions: endpoint: mean survival time, higher = longer survival
Procedure, shortened: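 Ratio derived from survival: compound-dosed mice over vehicle-dosed mice, all bearing a transplantable tumor.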

[1] = dose: 100.0 mg/kg/injection, schedule: Q01DX009 (ip), vehicle: Klucel (hydroxypropylcellulose) (HPC)
[2] = dose: 200.0 mg/kg/injection, schedule: Q01DX009 (ip), vehicle: Klucel (hydroxypropylcellulose) (HPC)
[3] = dose: 400.0 mg/kg/injection, schedule: Q01DX009 (ip), vehicle: Klucel (hydroxypropylcellulose) (HPC)
[4] = dose: 100.0 mg/kg/injection, schedule: Q04DX003 (ip), vehicle: saline with Tween-80
[5] = dose: 200.0 mg/kg/injection, schedule: Q04DX003 (ip), vehicle: saline with Tween-80
[6] = dose: 400.0 mg/kg/injection, schedule: Q04DX003 (ip), vehicle: saline with Tween-80
[7] = dose: 100.0 mg/kg/injection, schedule: Q01DX009 (ip), vehicle: saline with Tween-80
[8] = dose: 100.0 mg/kg/injection, schedule: Q04DX002 (ip), vehicle: saline with Tween-80
[9] = dose: 200.0 mg/kg/injection, schedule: Q04DX002 (ip), vehicle: saline with Tween-80
[10] = dose: 100.0 mg/kg/injection, schedule: Q04DX003 (ip), vehicle: Klucel (hydroxypropylcellulose) (HPC)
[11] = dose: 200.0 mg/kg/injection, schedule: Q04DX003 (ip), vehicle: Klucel (hydroxypropylcellulose) (HPC)
[12] = dose: 100.0 mg/kg/injection, schedule: Q01DX001 (ip), vehicle: saline
[13] = dose: 200.0 mg/kg/injection, schedule: Q01DX001 (ip), vehicle: saline
[14] = dose: 400.0 mg/kg/injection, schedule: Q01DX001 (ip), vehicle: saline
[15] = dose: 100.0 mg/kg/injection, schedule: Q01DX001 (ip), vehicle: saline with Tween-80
[16] = dose: 200.0 mg/kg/injection, schedule: Q01DX001 (ip), vehicle: saline with Tween-80

Measured: T/C

CCCCCNC(=O)CCC(=O)NCCCCC
inactive: dose: 100.0 mg/kg/injection, schedule: Q01DX001 (ip), vehicle: other 98 % of control | dose: 200.0 mg/kg/injection, schedule: Q01DX001 (ip), vehicle: other 98 % of control | dose: 400.0 mg/kg/injection, schedule: Q01DX001 (ip), vehicle: other 98 % of control

O=C1NCC(Nc2ccc(Cl)cc2)C(=O)N1 (centres undefined)
inactive: dose: 100.0 mg/kg/injection, schedule: Q01DX Z (ip), vehicle: methylcellulose (MC) 89 % of control | dose: 200.0 mg/kg/injection, schedule: Q01DX Z (ip), vehicle: methylcellulose (MC) 92 % of control

CCOC(=O)Nc1ccccc1OCC
inactive: [1] 96 % of control | [2] 95 % of control | [3] 96 % of control

COC(=O)c1ccc(Cn2ccc(=O)n(Cc3ccc(C(=O)OC)cc3)c2=O)cc1
inactive: [4] 91 % of control | [5] 88 % of control | [6] 90 % of control

CCC(C#N)C1=CCCCCC1 (centres undefined)
inactive: dose: 12.5 mg/kg/injection, schedule: Q04DX003 (ip), vehicle: saline with Tween-80 103 % of control | dose: 25.0 mg/kg/injection, schedule: Q01DX009 (ip), vehicle: saline with Tween-80 97 % of control | dose: 25.0 mg/kg/injection, schedule: Q04DX003 (ip), vehicle: saline with Tween-80 97 % of control and 101 % of control | dose: 50.0 mg/kg/injection, schedule: Q01DX009 (ip), vehicle: saline with Tween-80 102 % of control | dose: 50.0 mg/kg/injection, schedule: Q04DX003 (ip), vehicle: saline with Tween-80 110 % of control | [7] 107 % of control | [4] 101 % of control

Cn1nc(NC(=O)C(C)(C)C)c(C#N)c1C#N
inactive: dose: 50.0 mg/kg/injection, schedule: Q04DX002 (ip), vehicle: saline with Tween-80 95 % of control | [8] 95 % of control | [9] 98 % of control

Clc1ccc(/C=N\N2CCCCCC2)cc1
inactive: dose: 100.0 mg/kg/injection, schedule: Q01DX001 (ip), vehicle: Klucel (hydroxypropylcellulose) (HPC) 105 % of control | dose: 200.0 mg/kg/injection, schedule: Q01DX001 (ip), vehicle: Klucel (hydroxypropylcellulose) (HPC) 100 % of control | dose: 400.0 mg/kg/injection, schedule: Q01DX001 (ip), vehicle: Klucel (hydroxypropylcellulose) (HPC) 98 % of control

Cc1cc(N(C)C)c(C(C)C)cc1O (tested in a mixture with another compound)
inactive: dose: 3.2 micrograms/kg/injection, schedule: Q01DX009 (ip), vehicle: saline 95 % of control | dose: 6.3 micrograms/kg/injection, schedule: Q01DX009 (ip), vehicle: saline 90 % of control | dose: 12.5 micrograms/kg/injection, schedule: Q01DX009 (ip), vehicle: saline 105 % of control

Nc1c2ccccc2nc2ccccc12
inactive: dose: 5.0 mg/kg/injection, schedule: Q01DX009 (ip), vehicle: Klucel (hydroxypropylcellulose) (HPC) 105 % of control | dose: 10.0 mg/kg/injection, schedule: Q01DX009 (ip), vehicle: Klucel (hydroxypropylcellulose) (HPC) 98 % of control | dose: 15.0 mg/kg/injection, schedule: Q01DX009 (ip), vehicle: Klucel (hydroxypropylcellulose) (HPC) 103 % of control | [4] 86 % of control | [5] 86 % of control

NC(=O)c1cn[nH]c1N1CC[N+](CCCl)=N1
inactive: dose: 50.0 mg/kg/injection, schedule: Q01DX009 (ip), vehicle: saline 93 % of control | dose: 100.0 mg/kg/injection, schedule: Q01DX009 (ip), vehicle: saline 103 % of control | dose: 100.0 mg/kg/injection, schedule: Q04DX003 (ip), vehicle: saline 103 % of control | dose: 200.0 mg/kg/injection, schedule: Q01DX009 (ip), vehicle: saline 108 % of control | dose: 200.0 mg/kg/injection, schedule: Q04DX003 (ip), vehicle: saline 97 % of control

NCCCC1C2CCC(C2)C1CN (centres undefined)
inactive: dose: 100.0 mg/kg/injection, schedule: Q04DX002 (ip), vehicle: alcohol 98 % of control

O=C1NC(=O)/C(=C/c2ccco2)N1
inactive: [10] 103 % of control | [11] 90 % of control

CC(=O)OCC1OC(SSc2ccccc2)C(OC(C)=O)C(OC(C)=O)C1OC(C)=O (centres undefined)
inactive: [12] 98 % of control | [13] 89 % of control | [14] 89 % of control

N#CCN(CC#N)CCN(CC#N)CCN(CC#N)CC#N
inactive: [12] 104 % of control | [13] 104 % of control | [14] 95 % of control

CNc1ncnc2nn(C)c(C#N)c12
inactive: dose: 50.0 mg/kg/injection, schedule: Q04DX002 (ip), vehicle: saline 106 % of control | dose: 100.0 mg/kg/injection, schedule: Q04DX002 (ip), vehicle: saline 95 % of control | dose: 200.0 mg/kg/injection, schedule: Q04DX002 (ip), vehicle: saline 103 % of control

C=CCc1ccc(OC(=O)Nc2cc(Cl)ccc2C)c(OC)c1
inactive: [15] 93 % of control | [7] 106 % of control and 87 % of control | [8] 101 % of control and 92 % of control | [4] 103 % of control | [16] 97 % of control | dose: 200.0 mg/kg/injection, schedule: Q01DX009 (ip), vehicle: saline with Tween-80 101 % of control and 87 % of control | [9] 95 % of control and 97 % of control | [5] 101 % of control | dose: 400.0 mg/kg/injection, schedule: Q01DX001 (ip), vehicle: saline with Tween-80 92 % of control | dose: 400.0 mg/kg/injection, schedule: Q01DX009 (ip), vehicle: saline with Tween-80 101 % of control and 102 % of control | dose: 400.0 mg/kg/injection, schedule: Q04DX002 (ip), vehicle: saline with Tween-80 95 % of control and 98 % of control | [6] 101 % of control

CC(=O)[C@@]12OC(C)(C)O[C@@H]1C[C@H]1[C@@H]3C[C@H](C)C4=CC(=O)CC[C@]4(C)[C@H]3CC[C@@]12C
inactive: dose: 100.0 mg/kg/injection, schedule: Q01DX001 (ip), vehicle: steriod suspending solution 103 % of control | dose: 100.0 mg/kg/injection, schedule: Q04DX003 (ip), vehicle: steriod suspending solution 100 % of control | dose: 200.0 mg/kg/injection, schedule: Q01DX001 (ip), vehicle: steriod suspending solution 98 % of control | dose: 200.0 mg/kg/injection, schedule: Q04DX003 (ip), vehicle: steriod suspending solution 98 % of control | dose: 400.0 mg/kg/injection, schedule: Q01DX001 (ip), vehicle: steriod suspending solution 97 % of control | dose: 400.0 mg/kg/injection, schedule: Q04DX003 (ip), vehicle: steriod suspending solution 97 % of control

CCCCC(=O)N/N=C/c1ccc(N(C)C)cc1Cl
inactive: [12] 93 % of control | [13] 93 % of control | [14] 96 % of control

O=C(N/N=C\c1ccccc1Cl)C(=O)N/N=C\c1ccccc1Cl
inactive: [4] 94 % of control | [5] 94 % of control | [6] 88 % of control

Cn1c(=O)n(O)c(=O)c2ccccc21
inactive: dose: 50.0 mg/kg/injection, schedule: Q01DX001 (ip), vehicle: saline with Tween-80 96 % of control | [15] 109 % of control | [16] 91 % of control

C=CC(=O)N1CCOCC1
inactive: [4] 113 % of control | [5] 100 % of control | [6] 108 % of control

CC(=O)OC1C=CN(C(C)=O)C(SC(C)(C)C)C1OC(C)=O (centres undefined)
inactive: [1] 101 % of control | [2] 106 % of control | [3] 100 % of control

CCOC(=O)/C(=C\c1ccccn1)C(=O)c1cccnc1
inactive: [10] 102 % of control | [11] 105 % of control | dose: 400.0 mg/kg/injection, schedule: Q04DX003 (ip), vehicle: Klucel (hydroxypropylcellulose) (HPC) 118 % of control

CCC[CH2][Sn]([Cl])([CH2]CCC)[CH2]CCC
inactive: dose: 2.0 mg/kg/injection, schedule: Q01DX009 (ip), vehicle: saline 94 % of control | dose: 2.0 mg/kg/injection, schedule: Q04DX003 (ip), vehicle: saline 103 % of control | dose: 4.0 mg/kg/injection, schedule: Q01DX009 (ip), vehicle: saline 90 % of control | dose: 4.0 mg/kg/injection, schedule: Q04DX003 (ip), vehicle: saline 100 % of control | dose: 8.0 mg/kg/injection, schedule: Q01DX009 (ip), vehicle: saline 98 % of control | dose: 8.0 mg/kg/injection, schedule: Q04DX003 (ip), vehicle: saline 97 % of control

CCOc1ccc(/C=N/N=C(N)N)cc1OCC
inactive: dose: 62.5 mg/kg/injection, schedule: Q01DX Z (oral), vehicle: saline 110 % of control | dose: 125.0 mg/kg/injection, schedule: Q01DX Z (oral), vehicle: saline 114 % of control | dose: 250.0 mg/kg/injection, schedule: Q01DX Z (oral), vehicle: saline 91 % of control
